Assay results reported in patent US20110176998A1, “IMAGING AND THERAPY OF VIRUS-ASSOCIATED TUMORS” (THE JOHNS HOPKINS UNIVERSITY, priority 2007, published 2011).
Read-outs that look alike come from different tables or passages of the source.

What was measured:
Zta promoter = type: cell-based, Epstein-Barr virus; conditions: for known lytic inducer re-identified / hit in epithelial promoter reporter assay: library screen at 10 uM; for Zta promoter luciferase activity: AGS cells
[1] = system: recombinant EBV encoding GFP (BX-1) in AKATA-BX1 cells; assay: GFP whole virus assay in AKATA-BX1 cells; conditions: library screen at 10 uM

**Q.** O=c1[nH]cc(F)c(=O)[nH]1 [5-FU] was tested. Which “known lytic inducer re-identified / hit in epithelial promoter reporter assay” value (Zta promoter) did it give?
**A.** verified

**Q.** What does the source list for [Cl][Co][Cl] [Cobalt chloride]?
**A.** known lytic inducer re-identified / hit in epithelial promoter reporter assay (Zta promoter): missed; known lytic inducer re-identified / hit in lymphoma cell line/whole virus assay [1]: missed

**Q.** Which results are given for COc1cccc2c1C(=O)c1c(O)c3c(c(O)c1C2=O)C[C@@](O)(C(=O)CO)C[C@@H]3O[C@H]1C[C@H](N)[C@H](O)[C@H](C)O1 [Doxorubicin]?
**A.** known lytic inducer re-identified / hit in epithelial promoter reporter assay (Zta promoter): verified; known lytic inducer re-identified / hit in lymphoma cell line/whole virus assay [1]: verified

**Q.** CN(Cc1cnc2nc(N)nc(N)c2n1)c1ccc(C(=O)N[C@@H](CCC(=O)O)C(=O)O)cc1 [Methotrexate] was tested. Which “known lytic inducer re-identified / hit in epithelial promoter reporter assay” value (Zta promoter) did it give?
**A.** verified

**Q.** With CCCCCCCCCCCCCC(=O)O[C@@H]1[C@@H](C)[C@@]2(O)[C@@H](C=C(CO)C[C@]3(O)C(=O)C(C)=C[C@@H]23)[C@@H]2C(C)(C)[C@]12OC(C)=O [PMA] as the compound, how does the “known lytic inducer re-identified / hit in epithelial promoter reporter assay” value (Zta promoter) read?
**A.** verified

**Q.** And the “known lytic inducer re-identified / hit in lymphoma cell line/whole virus assay” value [1]?
**A.** verified

**Q.** What does the source list for CCCC(=O)[O-].[Na+] [Sodium butyrate]?
**A.** known lytic inducer re-identified / hit in epithelial promoter reporter assay (Zta promoter): missed; known lytic inducer re-identified / hit in lymphoma cell line/whole virus assay [1]: missed

**Q.** For CC(=O)O[C@H]1C(=O)[C@@]2(C)[C@H]([C@H](OC(=O)c3ccccc3)[C@]3(O)C[C@H](OC(=O)[C@H](O)[C@@H](NC(=O)c4ccccc4)c4ccccc4)C(C)=C1C3(C)C)[C@]1(OC(C)=O)CO[C@@H]1C[C@@H]2O [Taxol], which “known lytic inducer re-identified / hit in epithelial promoter reporter assay” value (Zta promoter) is on record?
**A.** verified

**Q.** With CCCC(=O)O [butyrate] as the compound, how does the “Zta promoter luciferase activity” value (Zta promoter) read?
**A.** activated

**Q.** For N.N.[Cl][Pt][Cl] [cis-platinum], which “known lytic inducer re-identified / hit in epithelial promoter reporter assay” value (Zta promoter) is on record?
**A.** verified

**Q.** How did the “suppression hits in GFP whole virus assay” value ([1]; picked after day 10) turn out when CC[C@H](C)C(=O)O[C@H]1C[C@@H](C)C=C2C=C[C@H](C)[C@H](CC[C@@H]3C[C@@H](O)CC(=O)O3)[C@H]21 [lovastatin] was run?
**A.** suppression hits

**Q.** With CCCC(CCC)C(=O)O [valproate] as the compound, how does the “Zta promoter luciferase activity” value (Zta promoter) read?
**A.** activated

**Q.** What about the “Zta promoter luciferase activity” value (Zta promoter; listed as valproic acid) of the same compound?
**A.** increased expression of luciferase in a dose-dependent manner

**Q.** Which results are given for Arginine butyrate?
**A.** known lytic inducer re-identified / hit in epithelial promoter reporter assay (Zta promoter): missed; known lytic inducer re-identified / hit in lymphoma cell line/whole virus assay [1]: missed
